# Experimental data as given in patent publication US20080214555A1 (priority 2007, published 2008).
# Experiments:
# [1] = background statement; cited from earlier work
# [2] = system: patients with non-ST elevation acute coronary syndrome; test: MERLIN-TIMI 36: ischemia on Holter / continuous ECG (CECG); assay type: in vivo, human
# Procedure: Median clinical follow-up was 12 months. At randomization, 3-lead CECG monitoring was initiated for median duration of 6.9 days. Recurrent ischemia on CECG was defined as ST dep >1 mm from baseline lasting >1 min. The TRS is calculated as the sum of seven presenting characteristics: 1) age >65 yrs, 2) >3 cardiac risk factors, 3) documented coronary artery disease, 4) recent severe angina, 5) ST deviation >0.5 mm, 6) elevated cardiac markers, and 7) prior aspirin use and is categorized as low (0-2), moderate (3-4), or high (>4) risk.
# The data for total duration (minutes) of ischemia on Holter between randomization and 72 hours from MERLIN-TIMI 36 is shown in Table 19 below.
# At randomization, 6355 patients (99%) had 3-lead CECG monitoring initiated (median duration 6.9 days). The primary CECG endpoint was the rate of ST dep ≧1 mm from baseline lasting ≧1 minute with heart rate at onset <100 bpm. Exploratory analyses using ST dep ≧0.5 mm were also performed.
# [3] = system: patients with non-ST elevation acute coronary syndrome; test: MERLIN-TIMI 36: arrhythmias on 7 day continuous ECG (Holter) recording; assay type: in vivo, human
# Procedure: Continuous ECG (Holter) recording was performed for the first 7 days after randomization. Because of the known prolongation of the QT interval with ranolazine, analyses of a prespecified set of arrhythmias were a major objective of the trial. All arrhythmias were evaluated in the TIMI ECG Core Laboratory by cardiologists blinded to treatment and outcomes.
# Continuous ECG (cECG or Holter) recording was performed for the first 7 days after randomization. Prespecified arrhythmia analyses were evaluated by a core laboratory blinded to treatment and outcomes.
# [4] = Example 8 table, first 7 days, n = 3162
# [5] = Table 24, all patients dosed, n = 3268
# [6] = incidence of ventricular tachyarrhythmias table
compound,measurement,setting,value
"COc1ccccc1OCC(O)CN1CCN(CC(=O)Nc2c(C)cccc2C)CC1 (racemic) [Ranolazine, (±)-N-(2,6-dimethylphenyl)-4-[2-hydroxy-3-(2-methoxyphenoxy)-propyl]-1-piperazineacetamide]",Prolonging the QTc interval,[1],2 to 5 ms
same,Rate of primary CECG endpoint events,[2]; >72 hours after randomization,11.6%
same,"RR, primary CECG endpoint events","[2]; >72 hours after randomization, ranolazine vs placebo",0.86
same,"Rate of primary CECG endpoint (ST dep ≧1 mm lasting ≧1 minute, heart rate at onset <100 bpm)",[2]; entire 7 day recording,19.2%
same,Rate of CECG ischemic events,[2]; lower ischemic threshold of 0.5 mm,22.9
same,"RR, CECG ischemic events","[2]; lower ischemic threshold of 0.5 mm, ranolazine vs placebo",0.91
same,"Episode of ventricular arrhythmia lasting >=8 beats, %",[3]; Example 8,5.5%
same,"Episode of ventricular arrhythmia lasting >=8 beats, number of patients",[3]; Example 8,175
same,"New-onset atrial fibrillation, %",[3]; Example 8,1.7%
same,"New-onset atrial fibrillation, number of patients",[3]; Example 8,55
same,"Pauses >=3 seconds, %",[3]; Example 8,3.1%
same,"Pauses >=3 seconds, number of patients",[3]; Example 8,97
same,"Supraventricular tachycardia, %",[3]; Example 8,43.2%
same,"Supraventricular tachycardia, number of patients",[3]; Example 8,1413
same,"Any ventricular tachycardia >= 3 beats, %",[3]; [4],(29.0) %
same,"Any ventricular tachycardia >= 3 beats, number",[3]; [4],948
same,"Brady, Complete heart block, or Pause >= 2.5 sec, %",[3]; [4],(38.5) %
same,"Brady, Complete heart block, or Pause >= 2.5 sec, number",[3]; [4],1257
same,"Bradycardia < 45 bpm for at least 4 beats, %",[3]; [4],(37.8) %
same,"Bradycardia < 45 bpm for at least 4 beats, number",[3]; [4],1236
same,"Clinically Significant Arrhythmia on Holter, %",[3]; [4],(71.3) %
same,"Clinically Significant Arrhythmia on Holter, number",[3]; [4],2330
same,"Pause >3 secs, %",[3]; [4],(3.1) %
same,"Pause >3 secs, number",[3]; [4],97
same,"Pause >3 secs: AV node block, %",[3]; [4],(1.0) %
same,"Pause >3 secs: AV node block, number",[3]; [4],31
same,"Pause >3 secs: Other, %",[3]; [4],(0.1) %
same,"Pause >3 secs: Other, number",[3]; [4],2
same,"Pause >3 secs: Sinoatrial node block, %",[3]; [4],(2.0) %
same,"Pause >3 secs: Sinoatrial node block, number",[3]; [4],64
same,"Polymorphic VT >= 8 beats, %",[3]; [4],(1.2) %
same,"Polymorphic VT >= 8 beats, number",[3]; [4],38
same,"Sustained VT (>=30 secs), %",[3]; [4],(0.44) %
same,"Sustained VT (>=30 secs), number",[3]; [4],14
same,"Sustained VT (>=30 secs): Monomorphic, %",[3]; [4],(0.12) %
same,"Sustained VT (>=30 secs): Monomorphic, number",[3]; [4],4
same,"Sustained VT (>=30 secs): Polymorphic, %",[3]; [4],(0.32) %
same,"Sustained VT (>=30 secs): Polymorphic, number",[3]; [4],10
same,"Triplets, %",[3]; [4],(46.9) %
same,"Triplets, number",[3]; [4],1532
same,"VT >= 4 beats, %",[3]; [4],(23.6) %
same,"VT >= 4 beats, number",[3]; [4],772
same,"VT >= 8 beats (<30 secs), %",[3]; [4],(5.5) %
same,"VT >= 8 beats (<30 secs), number",[3]; [4],175
same,"Episode of ventricular tachycardia lasting >8 beats, %",[3]; Example 9,5.3%
same,"Episode of ventricular tachycardia lasting >8 beats, number of patients",[3]; Example 9,166
same,"New-onset atrial fibrillation, %",[3]; Example 9,1.7%
same,"New-onset atrial fibrillation, number of patients",[3]; Example 9,55
same,"Pauses >3 seconds, %",[3]; Example 9,3.1%
same,"Pauses >3 seconds, number of patients",[3]; Example 9,97
same,"Supraventricular tachycardia, %",[3]; Example 9,44.7%
same,"Supraventricular tachycardia, number of patients",[3]; Example 9,1413
same,Incidence of ventricular tachycardia,[3]; No. of beats ≧8,5.3%
same,Incidence of ventricular tachycardia,[3]; No. of beats ≧10,3.5%
same,Incidence of ventricular tachycardia,[3]; No. of beats ≧15,1.3%
same,Incidence of ventricular tachycardia,[3]; No. of beats ≧20,0.9%
same,"Any Clinically Significant Arrhythmia during 7 day Holter, %",[3]; [5],(71.3%)
same,"Any Clinically Significant Arrhythmia during 7 day Holter, number",[3]; [5],2330
same,"Bradycardic episode during 7 day Holter, %",[3]; [5],(38.5%)
same,"Bradycardic episode during 7 day Holter, number",[3]; [5],1257
same,"New onset atrial fibrillation during 7 day Holter, %",[3]; [5],(1.7%)
same,"New onset atrial fibrillation during 7 day Holter, number",[3]; [5],55
same,"Supraventricular tachycardia (any SVT >= 120 bpm) during 7 day Holter, %",[3]; [5],(43.2%)
same,"Supraventricular tachycardia (any SVT >= 120 bpm) during 7 day Holter, number",[3]; [5],1413
same,"Ventricular tachycardia (any VT >= 100 bpm >= 3 beats) during 7 day Holter, %",[3]; [5],(29.0%)
same,"Ventricular tachycardia (any VT >= 100 bpm >= 3 beats) during 7 day Holter, number",[3]; [5],948
same,"Polymorphic VT >= 8 beats on cECG, %",[3]; [6],(1.2) %
same,"Sustained VT (>=30 sec) on cECG, %",[3]; [6],(0.44) %
same,"VT ≧ 3 beats (≧100 b/m) on cECG, %",[3]; [6],(52.1) %
same,"VT ≧ 4 beats (≧100 b/m) on cECG, %",[3]; [6],(20.9) %
same,"VT ≧ 8 beats (<30 sec) on cECG, %",[3]; [6],(5.3) %
same,"Polymorphic VT >= 8 beats on cECG, Δ n",[3]; placebo vs ranolazine,10
same,"Sustained VT (>=30 sec) on cECG, Δ n",[3]; placebo vs ranolazine,0
same,"VT ≧ 3 beats (≧100 b/m) on cECG, Δ n",[3]; placebo vs ranolazine,347
same,"VT ≧ 4 beats (≧100 b/m) on cECG, Δ n",[3]; placebo vs ranolazine,279
same,"VT ≧ 8 beats (<30 sec) on cECG, Δ n",[3]; placebo vs ranolazine,99
same,"Polymorphic VT >= 8 beats on cECG, Δ (%)",[3]; ranolazine vs placebo,(−21) %
same,"VT ≧ 3 beats (≧100 b/m) on cECG, Δ (%)",[3]; ranolazine vs placebo,(−17) %
same,"VT ≧ 4 beats (≧100 b/m) on cECG, Δ (%)",[3]; ranolazine vs placebo,(−30) %
same,"VT ≧ 8 beats (<30 sec) on cECG, Δ (%)",[3]; ranolazine vs placebo,(−37) %
same,Incidence of ventricular tachycardia of >8 beats,[3]; subgroup baseline QTc >450 msec,5.6%
same,Incidence of ventricular tachycardia of >8 beats,[3]; subgroup baseline QTc ≦450 msec,5.2%
same,Incidence of ventricular tachycardia of >8 beats,[3]; subgroup ejection fraction <40%,8.8%
same,Incidence of ventricular tachycardia of >8 beats,[3]; subgroup ejection fraction ≧40%,5.3%
